Holding throughout (test): In vitro antibacterial activity, microtitration dilution method (MIC)
Holding throughout (assay type): cell-based

Experiment [1] deals with Streptococcus pyogenes C-203. Particulars: C203; Streptococcus pyogenes C-203, microtitration dilution; read-out: Minimal Inhibitory Concentration MIC. From the text:
(§1) The compounds of the invention display antibacterial activity when tested by the microtitration dilution method as described in Heifetz, et al, Antimicr. Agents & Chemoth., 6, 124 (1974), which is incorporated herein by reference. By use of this method, the followed minimum inhibitory concentration values (MICs in μg/mL) were obtained for representative compounds of the invention.

Experiment [2] has as its system Staphylococcus aureus H 228. Particulars: H228; Staphylococcus aureus H 228, microtitration dilution; read-out: Minimal Inhibitory Concentration MIC.
From the text: as §1

A further experiment deals with Escherichia coli Vogel. Particulars: Escherichia coli Vogel, microtitration dilution; read-out: Minimal Inhibitory Concentration MIC.
From the text: as §1

Experiment [3] concerns Providencia rettgeri M 1771. Particulars: M1771; Providencia rettgeri M 1771, microtitration dilution; read-out: Minimal Inhibitory Concentration MIC.
From the text: as §1

Experiment [4] concerns Enterobacter cloacae MA 2646. The conditions noted are these: MA2646; Enterobacter cloacae MA 2646, microtitration dilution; read-out: Minimal Inhibitory Concentration MIC.
From the text: as §1

For experiment [5], the system named is Streptococcus faecalis MGH-2. Particulars: Enterococcus faecalis, MGH2; Streptococcus faecalis MGH-2, microtitration dilution; read-out: Minimal Inhibitory Concentration MIC. The source says: (§2) Agents & Chemoth., 6, 124 (1974), which is incorporated herein by reference.
The test system of experiment [6] is Pseudomonas aeruginosa UI-18.
From the text: as §2

The subject of experiment [7] is Streptococcus pneumoniae SV-1. The conditions noted are these: SV1; Streptococcus pneumoniae SV-1, microtitration dilution; read-out: Minimal Inhibitory Concentration MIC.
From the text: as §2

Experiment [8] deals with Staphylococcus aureus UC-76. Particulars: UC76; Staphylococcus aureus UC-76, microtitration dilution; read-out: Minimal Inhibitory Concentration MIC.
From the text: as §2

The subject of experiment [9] is Klebsiella pneumoniae MGH-2. Particulars: MGH2; Klebsiella pneumoniae MGH-2, microtitration dilution; read-out: Minimal Inhibitory Concentration MIC.
From the text: as §2

Two molecules from patent US5585491A, “Antibacterial agents” (Otsuka Pharmaceutical Co., Ltd., priority 1995, dated 1996) can be followed below.

Values after ≈ are worked out from the molar mass of the structure shown. Where two headings read alike, the source gives them in different places.

Regarding `Cc1c(F)c(N2CCNC(C)C2)c(F)c2c1c(=O)c(C(=O)O)cn2C1CC1` (centres unmarked) [Ex. 5, 1-Cyclopropyl-6,8-difluoro-1,4-dihydro-5-methyl-7-[3-methyl-1-piperazinyl]-4-oxo-3-quinolinecarboxylic acid], the MIC in experiment [1] was 0.006 µg/mL (≈ 0.0159 µM); in [2] it was 0.025 µg/mL (≈ 0.0662 µM); in the experiment on Escherichia coli Vogel, 0.05 µg/mL (≈ 0.132 µM); in experiment [3], 0.1 µg/mL (≈ 0.265 µM); in [4], 0.025 µg/mL (≈ 0.0662 µM); in experiment [5] it was 0.1 µg/mL (≈ 0.265 µM). Further, the MIC in experiment [6] (Pseudomonas aeruginosa, UI18, read-out: Minimal Inhibitory Concentration MIC) came to 0.4 µg/mL (≈ 1.06 µM); in [7] it was 0.025 µg/mL (≈ 0.0662 µM); in [8], 0.013 µg/mL (≈ 0.0344 µM); in [9], 0.05 µg/mL (≈ 0.132 µM).
Regarding `Cc1c(F)c(N2CCNCC2)cc2c1c(=O)c(C(=O)O)cn2C1CC1` [Ex. 6, 1-Cyclopropyl-6-fluoro-1,4-dihydro-5-methyl-4-oxo-7-(1-piperazinyl)-3-quinolinecarboxylic acid], the MIC worked out at 0.1 µg/mL (≈ 0.29 µM) in experiment [1]; 0.1 µg/mL (≈ 0.29 µM) in experiment [2]; 0.013 µg/mL (≈ 0.0376 µM) in the experiment with Escherichia coli Vogel; 0.1 µg/mL (≈ 0.29 µM) in experiment [3]; 0.013 µg/mL (≈ 0.0376 µM) in [4]; 0.05 µg/mL (≈ 0.145 µM) in [5]. For the same molecule, the MIC in experiment [6] (UI18, Pseudomonas aeruginosa UI-18, microtitration dilution, read-out: Minimal Inhibitory Concentration MIC) is 0.2 µg/mL (≈ 0.579 µM); in [7] it was 0.05 µg/mL (≈ 0.145 µM); in [8] it was 0.025 µg/mL (≈ 0.0724 µM); in experiment [9], 0.05 µg/mL (≈ 0.145 µM).
